Assay [1] deals with HT29 human colorectal carcinoma cells. The assay can be described thus: Ggly-stimulated inositol phosphate production in HT29 cells. Format: cell-based. As to the method:
(§1) Intracellular inositol phosphate production was determined as described previously (Qian et al, 1993). IMGE-5 cells (10^5 cells/ml) were plated in 24-multiwell culture plates in DMEM supplemented with 10% FBS, 200 IU/ml penicillin and 200 μg/ml streptomycin. 24 h later, cells were incubated with DMEM supplemented with antibiotics and Myo-[2-^3H]inositol (2.5 μCi/well) and shifted to 39° C. for 16 h. Cells were then washed with pre-warmed DMEM and incubated (20-30 minutes, 37° C.) with DMEM supplemented with 20 mM LiCl. Loaded cells were then washed in 1 ml of IP buffer (135 mM NaCl, 20 mM N-(2-hydroxyethyl)piperazine-N′-(2-ethanesulfonic acid), 2 mM CaCl2, 1.2 mM MgSO4, 1 mM ethylene glycol-bis(2-aminoethylether)-N,N,N′,N′-tetraacetic acid, 10 mM LiCl, and 0.5% bovine serum albumin, pH 7.45) and incubated with or without agonist in a final volume of 0.5 ml of IP buffer. After 1-h incubation at 37° C., the reaction was stopped by removing the incubation medium and adding 1 ml of a mixture of ethanol/HCl (2000:1; v/v). One ml of each aliquot was applied to a column containing 1.6 ml of a 1:2 (v/v) Dowex AG-1-X8 anion exchange resin in distilled water. The columns were washed with 4 ml of distilled water, followed by 4 ml of 40 mM HCOONH4, and inositol phosphates were eluted with 4 ml of 1 M HCOONH4. The radioactivity of each eluate was counted after addition of Complete phase combining system solution (Amersham, UK). For the positive control, IMGE-5 cells were incubated with a combination of 30 mM NaF and 10 μM AlCl3 under the same experimental conditions.
Ggly-stimulated inositol phosphate production was measured in HT29 human colorectal carcinoma cells.

Another assay has as its system HT29 cells. The assay can be described thus: HT29 cell proliferation, MTT assay. Format: cell-based, human. (Tetrazolium dyes change colour on reduction, which living cells bring about.)
The target of assay [2] is T1, CCK-2 receptor (Homo sapiens, UniProt P32239).
T1 sequence (P32239 1-447): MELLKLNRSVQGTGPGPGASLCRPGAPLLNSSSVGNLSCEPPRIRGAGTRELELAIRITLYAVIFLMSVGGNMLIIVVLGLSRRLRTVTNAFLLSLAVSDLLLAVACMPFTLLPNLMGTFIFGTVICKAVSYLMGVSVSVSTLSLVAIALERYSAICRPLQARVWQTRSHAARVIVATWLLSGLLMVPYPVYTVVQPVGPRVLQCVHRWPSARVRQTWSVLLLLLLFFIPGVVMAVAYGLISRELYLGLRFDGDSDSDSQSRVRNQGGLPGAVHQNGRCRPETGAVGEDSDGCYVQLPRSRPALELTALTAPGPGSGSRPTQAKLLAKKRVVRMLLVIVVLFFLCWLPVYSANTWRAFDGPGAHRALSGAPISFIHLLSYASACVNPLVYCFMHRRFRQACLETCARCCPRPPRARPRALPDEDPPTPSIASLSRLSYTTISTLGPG
Kind of assay: Gamide-stimulated inositol phosphate production in COS-7 cells transfected with the CCK-2 receptor. The format is cell-based. Also on record: COS-7 cells transiently transfected with CCK-2 receptor cDNA; expressed in transfected cells; host or cells: COS-7. As to the method:
as §1
Gamide-stimulated inositol phosphate production was measured in COS-7 cells transfected with the CCK-2 receptor. […] Bismuth ions alone had no effect on inositol phosphate production in CCK-2 receptor-transfected COS-7 cells and HT29 cells, even at the highest concentration tested.
We then investigated the role of the individual glutamates in biological activity. The effects of the mutants GamideE7A and GamideE8,9A on inositol phosphate production in COS-7 cells transiently transfected with the CCK-2 receptor were compared.

In assay [3] the test system is AGS gastric carcinoma cells. The assay can be described thus: AGS cell proliferation, MTT assay. Format: cell-based, human. Conditions: treatment alone: 10 nM Ggly; 32 mol/mol Bi without Ggly; fetal calf serum positive control.
The next assay deals with rectal mucosa. The assay can be described thus: Proliferation in the rectal mucosa of rectally defunctioned rats (metaphase-arrested cells). Format: in vivo. To be noted: colloidal bismuth subcitrate 135 mg/kg/12 hours oral gavage 5 days per week, 4 weeks; Ggly 2.5 nmol/kg/hr. As for the experimental part: DFO (400 mg/kg) was administered intraperitoneally thrice weekly, and bismuth ions were administered as colloidal bismuth subcitrate (135 mg/kg/12 hours) by oral gavage 5 days per week. After 4 weeks, the rats were injected with vincristine to arrest cycling cells in metaphase, and sacrificed 3 hrs later. Crypt heights in the rectal mucosa, and the number of metaphase arrested cells per crypt, were then determined microscopically.

Assay [4] addresses T1, CCK-2 receptor. Kind of assay: [125I]-BH-CCK8 displacement, CCK-2 receptor on transiently transfected COS-7 cells. The format is binding. Set-up: COS-7 cells transiently transfected with CCK-2 receptor cDNA; expressed in transfected cells; host or cells: COS-7. As for the experimental part:
(§2) Non-specific binding was evaluated with […] of unlabelled CCK8. Incubation was stopped by adding 2 ml of ice-cold PBS containing 2% bovine serum albumin. After centrifugation, supernatants were removed and the radioactivity bound to the cell membranes was measured in a γ-counter (LKB, Wallac, Finland).
The lines of best fit shown in FIG. 21 were obtained by nonlinear regression to a single site model with the program Sigmaplot.

Assay [5] deals with T1, CCK-2 receptor. The assay can be described thus: [125I]-BH-CCK8 displacement, CCK-2 receptor on Jurkat cells. Format: binding. As for the experimental part: as §2
[6] abbreviates: binding in the absence of competitor, fitted, mean ± S.E.
[7] abbreviates: presence and absence of 1 μM DFO.
Setting [8] is: single experiment, presence and absence of 1 μM DFO.

As for `[Bi+3]` [bismuth ions], the “Effect on Ggly-induced inositol phosphate production” value in assay [1] (2, 8, and 32 moles Bi3+/mole Ggly, 10 nM Ggly) is on record as “significantly reduced this Ggly-induced stimulation”. For the same compound, the “Effect of bismuth ions alone on inositol phosphate production” value in assay [1] (HT29 cells, highest concentration tested) is listed as “no effect”; at CCK-2 receptor [2] (CCK-2 receptor-transfected COS-7 cells, highest concentration tested) it was “no effect”. Also, in the assay with HT29 cells (2, 8 or 32 moles/mole, 10 nM Ggly, HT29), the “Effect on proliferation induced by Ggly” value is on record as “significantly decreased the proliferation induced by Ggly”. For the same compound, the “Effect of bismuth ions alone on proliferation” value in the assay with HT29 cells (HT29, highest concentrations tested) is given as “no effect”. In addition, the “Effect on Gamide-induced inositol phosphate production” value at CCK-2 receptor [2] (2, 8, and 32 moles Bi3+/mole Gamide, 10 nM Gamide) is given as “no significant effect”. For the same compound, the “Mean Response ± SEM (% Control), proliferation of AGS cells” value in assay [3] came out at 102.2 ± 4.2 % Control. For the same compound, the “Effect on stimulation of proliferation of the rectal mucosa by Ggly” value in the assay with rectal mucosa is on record as “completely abolished”. Moreover, at CCK-2 receptor [4] (2, 8 or 32 moles/mole, transfected COS-7 cells (FIG. 16)), the “Effect on binding of CCK8 to the CCK-2 receptor” value is “no effect”.

On to `CSCC[C@H](NC(=O)[C@H](Cc1c[nH]c2ccccc12)NC(=O)CNC(=O)[C@H](Cc1ccc(O)cc1)NC(=O)[C@H](C)NC(=O)[C@H](CCC(=O)O)NC(=O)[C@H](CCC(=O)O)NC(=O)[C@H](CCC(=O)O)NC(=O)[C@H](CCC(=O)O)NC(=O)[C@H](CCC(=O)O)NC(=O)[C@H](CC(C)C)NC(=O)[C@H](Cc1c[nH]c2ccccc12)NC(=O)[C@@H]1CCCN1C(=O)CNC(=O)[C@@H]1CCC(=O)N1)C(=O)N[C@@H](CC(=O)O)C(=O)N[C@@H](Cc1ccccc1)C(N)=O` [Gamide], for which the “Stimulation of inositol phosphate production” value at CCK-2 receptor [2] (10 nM peptide) was “No significant difference was observed in the extent of stimulation”. Moreover, on CCK-2 receptor [2] (COS-7 cells transfected with the CCK-2 receptor, 10 μM AlF4−, 10 nM Gamide), the “Increase in inositol phosphate production” value is on record as 4 fold. Moreover, the “% Maximum Binding (Jurkat)” value on CCK-2 receptor [5] (setting [6]) came out at 100.0 ± 3.1%; at CCK-2 receptor [5] (setting [7]) it was 99.0 ± 0.4%. Also, the “Ordinate intercept, FIG. 24B” value on CCK-2 receptor [5] (setting [8]) amounted to 99.6%. In addition, the “% Maximum Binding (COS-7)” value at CCK-2 receptor [4] (setting [6]) was 94.2 ± 2.4%; on CCK-2 receptor [4] (setting [7]), 81.1 ± 1.7%. Moreover, the “Predicted ordinate intercept, FIG. 21” value on CCK-2 receptor [4] (single experiment) is given as 86.1%. The “Ordinate intercept, FIG. 24A” value on CCK-2 receptor [4] (setting [8]) is given as 81.1%.

For the compound “Ggly: glycine-extended gastrin17, 18 amino acid non-amidated gastrin, SEQ ID NO:4, residues 55-72 of progastrin (XGPWLEEEEEAYGWMDFG; (1)..(1) pyroglutamate; listed as Homo sapiens)”, in assay [1] (HT29 cells, 10 nM Ggly), the “Inositol phosphate production compared to the control” value amounted to 225%. For the same compound, the “HT29 cell proliferation compared to the control” value in the assay on HT29 cells (10 nM Ggly, MTT) came to 120%. In addition, in assay [3], the “Mean Response ± SEM (% Control), proliferation of AGS cells” value was determined as 126.0 ± 2.3 % Control.

The values are drawn from patent US20070031511A1, “Method of treatment” (priority 2003, published 2007).
